Laboratory results: publication PMC10584882 (Communications Biology, 2023)
Values joined by “and” are separate entries in the source; they are usually repeats but may differ in a detail not shown here. Identical values can stand only once. “Also recorded” adds a separate entry of the source.

What was measured:
SARS-CoV-2-GFP = system: SARS-CoV-2-GFP; parameters: method as in PMID 33811162; details: VERO E6 cell-based SARS-CoV-2 infection assays; cited from earlier work
[1] = Anti-viral experiment with Golden Syrian hamsters: body weight; type: in vivo, Golden Syrian hamsters (Mesocricetus auratus); details: for body weight, individual data: individual animals
SARS-CoV-2 [2] = experiment: Anti-viral experiment with Golden Syrian hamsters: viral load in lungs and trachea; type: in vivo, Golden Syrian hamsters (Mesocricetus auratus); details: 1 mg/kg s.c. daily from day 1; for RNA - lung / RNA - trachea / titer - lung / titer - trachea: individual hamsters; for viral load in trachea versus untreated group (in words): TCID50
SARS-CoV-2 [3] = experiment: Anti-viral experiment with Golden Syrian hamsters: histopathology scores; type: in vivo, Golden Syrian hamsters (Mesocricetus auratus); details: for trachea, epithelial damage (score) / bronchi, epithelial damage (score) / pulmonary parenchyma damage (score) / submucosal damage (score) / tissue repair (score) / vascular damage (score): 1 mg/kg s.c., individual hamsters; for trachea, epithelial damage (score): 0 normal, 1 mild, 2 moderate, 3 severe tracheitis; for bronchi, epithelial damage (score) / pulmonary parenchyma damage (score) / submucosal damage (score) / tissue repair (score) / vascular damage (score): sum of five lung lobes, maximum 15

Q: For `CCCC[C@@H](C=O)NC(=O)[C@H](CC(C)C)NC(=O)OCc1ccccc1` [Calpeptin, reference compound], which “concentration giving high suppression of virus replication” value (SARS-CoV-2-GFP) is on record?
A: below 100 nM

Q: What does the source list for `CCCC[C@H](NC(=O)[C@H](CC(C)C)NC(=O)OCc1ccccc1)C(O)S(=O)(=O)[O-].[Na+]` (stereo partly shown) [S-Calpeptin]?
A: body weight, individual data ([1]; G1 SARS-CoV-2 infected, 1 mg/kg s.c. daily, Day 1, 1 mg/kg): 142 g and 136 g and 131 g and 130 g and 132 g and 133 g and 125 g and 128 g and 123 g and 114 g and 117 g and 111 g; body weight, individual data ([1]; G1 SARS-CoV-2 infected, 1 mg/kg s.c. daily, Day 2, 1 mg/kg): 139 g and 141 g and 136 g and 131 g and 128 g and 132 g and 123 g and 127 g and 120 g and 111 g and 116 g and 108 g; body weight, individual data ([1]; G1 SARS-CoV-2 infected, 1 mg/kg s.c. daily, Day 3, 1 mg/kg): 138 g and 133 g and 132 g and 125 g and 128 g and 131 g and 123 g and 122 g and 126 g and 118 g and 121 g and 111 g and 115 g and 106 g; body weight, individual data ([1]; G1 SARS-CoV-2 infected, 1 mg/kg s.c. daily, Day 4, 1 mg/kg): 126 g and 130 g and 121 g and 120 g and 118 g and 123 g and 111 g and 116 g and 104 g; body weight, individual data ([1]; G1 SARS-CoV-2 infected, 1 mg/kg s.c. daily, Day 5, 1 mg/kg): 126 g and 129 g and 121 g and 119 g and 118 g and 111 g and 117 g and 104 g; body weight, individual data ([1]; G1 SARS-CoV-2 infected, 1 mg/kg s.c. daily, Day 6, 1 mg/kg): 115 g and 118 g and 111 g and 116 g and 105 g; body weight, individual data ([1]; G1 SARS-CoV-2 infected, 1 mg/kg s.c. daily, Day 7, 1 mg/kg): 117 g and 121 g and 112 g and 118 g and 106 g; body weight, individual data ([1]; G4 mock infected (so in the source), Day 1): 155 g and 138 g and 130 g; body weight, individual data ([1]; G4 mock infected (so in the source), Day 2): 156 g and 137 g and 130 g; body weight, individual data ([1]; G4 mock infected (so in the source), Day 3): 157 g and 138 g and 131 g; body weight, individual data ([1]; G4 mock infected (so in the source), Day 4): 158 g and 140 g and 130 g; body weight, individual data ([1]; G4 mock infected (so in the source), Day 5): 159 g and 139 g and 131 g; body weight, individual data ([1]; G4 mock infected (so in the source), Day 6): 160 g and 139 g and 130 g; body weight, individual data ([1]; G4 mock infected (so in the source), Day 7): 162 g and 141 g and 131 g; body weight, average ([1]; SARS-CoV-2 infected hamsters, 1 mg/kg s.c. daily, day 1): 96.7382 %, relative to day 0; body weight, average ([1]; SARS-CoV-2 infected hamsters, 1 mg/kg s.c. daily, day 2): 95.2969 %, relative to day 0; body weight, average ([1]; SARS-CoV-2 infected hamsters, 1 mg/kg s.c. daily, day 3): 94.3407 %, relative to day 0; body weight, average ([1]; SARS-CoV-2 infected hamsters, 1 mg/kg s.c. daily, day 4): 93.4383 %, relative to day 0; body weight, average ([1]; SARS-CoV-2 infected hamsters, 1 mg/kg s.c. daily, day 5): 93.2155 %, relative to day 0; body weight, average ([1]; SARS-CoV-2 infected hamsters, 1 mg/kg s.c. daily, day 6): 93.1372 %, relative to day 0; body weight, average ([1]; SARS-CoV-2 infected hamsters, 1 mg/kg s.c. daily, day 7): 94.5983 %, relative to day 0; body weight, average ([1]; mock infected hamsters, 1 mg/kg s.c. daily, day 1): 97.4975 %, relative to day 0; body weight, average ([1]; mock infected hamsters, 1 mg/kg s.c. daily, day 2): 98.3232 %, relative to day 0; body weight, average ([1]; mock infected hamsters, 1 mg/kg s.c. daily, day 3): 98.7966 %, relative to day 0; body weight, average ([1]; mock infected hamsters, 1 mg/kg s.c. daily, day 4): 99.2826 %, relative to day 0; body weight, average ([1]; mock infected hamsters, 1 mg/kg s.c. daily, day 5): 100.017 %, relative to day 0; body weight, average ([1]; mock infected hamsters, 1 mg/kg s.c. daily, day 6): 100.959 %, relative to day 0; body weight, average ([1]; mock infected hamsters, 1 mg/kg s.c. daily, day 7): 101.896 %, relative to day 0; RNA - lung (SARS-CoV-2 [2]; day 3 p.i., 1 mg/kg): 2.194 SARS-CoV-2 RNA copies/β actin RNA copies and 2.076 SARS-CoV-2 RNA copies/β actin RNA copies and 2.135 SARS-CoV-2 RNA copies/β actin RNA copies and 5.784 SARS-CoV-2 RNA copies/β actin RNA copies and 2.611 SARS-CoV-2 RNA copies/β actin RNA copies; RNA - trachea (SARS-CoV-2 [2]; day 3 p.i., 1 mg/kg): 2.441 SARS-CoV-2 RNA copies/β actin RNA copies and 1.131 SARS-CoV-2 RNA copies/β actin RNA copies and 3.086 SARS-CoV-2 RNA copies/β actin RNA copies and 1.769 SARS-CoV-2 RNA copies/β actin RNA copies and 1.594 SARS-CoV-2 RNA copies/β actin RNA copies; titer - lung (SARS-CoV-2 [2]; day 3 p.i., 1 mg/kg): 10.089 log TCID50/g and 9.011 log TCID50/g and 10.277 log TCID50/g and 9.5756 log TCID50/g and 8.981 log TCID50/g; titer - trachea (SARS-CoV-2 [2]; day 3 p.i., 1 mg/kg): 5.2099 log TCID50/g and 3.791 log TCID50/g and 5.949 log TCID50/g and 7.023 log TCID50/g and 7.625 log TCID50/g; RNA - lung (SARS-CoV-2 [2]; day 5 p.i., 1 mg/kg): 2.363 SARS-CoV-2 RNA copies/β actin RNA copies and 1.994 SARS-CoV-2 RNA copies/β actin RNA copies and 2.073 SARS-CoV-2 RNA copies/β actin RNA copies and 2.178 SARS-CoV-2 RNA copies/β actin RNA copies and 1.943 SARS-CoV-2 RNA copies/β actin RNA copies; RNA - trachea (SARS-CoV-2 [2]; day 5 p.i., 1 mg/kg): 1.729 SARS-CoV-2 RNA copies/β actin RNA copies and 2.0935 SARS-CoV-2 RNA copies/β actin RNA copies and 2.166 SARS-CoV-2 RNA copies/β actin RNA copies and 1.097 SARS-CoV-2 RNA copies/β actin RNA copies and 1.597 SARS-CoV-2 RNA copies/β actin RNA copies; titer - lung (SARS-CoV-2 [2]; day 5 p.i., 1 mg/kg): 7.002 log TCID50/g and 7.059 log TCID50/g and 6.976 log TCID50/g and 7.092 log TCID50/g and 6.453 log TCID50/g; titer - trachea (SARS-CoV-2 [2]; day 5 p.i., 1 mg/kg): 0 log TCID50/g and 2.787 log TCID50/g; titer - trachea (SARS-CoV-2 [2]; day 7 p.i.): 0 log TCID50/g; RNA - lung (SARS-CoV-2 [2]; day 7 p.i., 1 mg/kg): 0.6096 SARS-CoV-2 RNA copies/β actin RNA copies and 0.8217 SARS-CoV-2 RNA copies/β actin RNA copies and 0.4837 SARS-CoV-2 RNA copies/β actin RNA copies and 0.3749 SARS-CoV-2 RNA copies/β actin RNA copies and 1.469 SARS-CoV-2 RNA copies/β actin RNA copies; RNA - trachea (SARS-CoV-2 [2]; day 7 p.i., 1 mg/kg): 0.3702 SARS-CoV-2 RNA copies/β actin RNA copies and -0.0169 SARS-CoV-2 RNA copies/β actin RNA copies and -0.6383 SARS-CoV-2 RNA copies/β actin RNA copies and 0.1661 SARS-CoV-2 RNA copies/β actin RNA copies and 0.09095 SARS-CoV-2 RNA copies/β actin RNA copies; titer - lung (SARS-CoV-2 [2]; day 7 p.i., 1 mg/kg): 0 log TCID50/g and 1.7736 log TCID50/g; viral load in lungs versus untreated group (in words) (SARS-CoV-2 [2]; hamsters, day 5 p.i., 1 mg/kg): lower SARS-CoV-2 titers in the treated group compared to the untreated group; also recorded: lower viral loads in their trachea and lungs; viral load in trachea versus untreated group (in words) (SARS-CoV-2 [2]; hamsters, day 5 p.i., 1 mg/kg): statistically significant difference on TCID50 viral load in trachea; also recorded: reduces viral load in trachea; also recorded: significant reduction of the viral load in trachea on day 5; also recorded: the decrease was only statistically significant in the trachea; viral load in trachea versus untreated group (in words) (SARS-CoV-2 [2]; hamsters, day 5 p.i., listed as sulfonated Calpeptin, 1 mg/kg): reduces the viral load in the trachea; trachea, epithelial damage (score) (SARS-CoV-2 [3]; day 3 p.i., 1 mg/kg): 0 and 1; bronchi, epithelial damage (score) (SARS-CoV-2 [3]; day 3 p.i., 1 mg/kg): 6 and 3 and 1 and 4; pulmonary parenchyma damage (score) (SARS-CoV-2 [3]; day 3 p.i., 1 mg/kg): 7 and 4 and 5 and 8; submucosal damage (score) (SARS-CoV-2 [3]; day 3 p.i., 1 mg/kg): 7 and 2 and 1 and 5; tissue repair (score) (SARS-CoV-2 [3]; day 3 p.i., 1 mg/kg): 7 and 6 and 2 and 4; vascular damage (score) (SARS-CoV-2 [3]; day 3 p.i., 1 mg/kg): 7 and 8 and 3 and 9; trachea, epithelial damage (score) (SARS-CoV-2 [3]; day 5 p.i., 1 mg/kg): 0 and 1 and 2; bronchi, epithelial damage (score) (SARS-CoV-2 [3]; day 5 p.i.): 2; pulmonary parenchyma damage (score) (SARS-CoV-2 [3]; day 5 p.i., 1 mg/kg): 7 and 10 and 9; submucosal damage (score) (SARS-CoV-2 [3]; day 5 p.i., 1 mg/kg): 8 and 11 and 9 and 10; tissue repair (score) (SARS-CoV-2 [3]; day 5 p.i., 1 mg/kg): 6 and 8 and 9 and 10; vascular damage (score) (SARS-CoV-2 [3]; day 5 p.i., 1 mg/kg): 10 and 9 and 11 and 13; trachea, epithelial damage (score) (SARS-CoV-2 [3]; day 7 p.i., 1 mg/kg): 0 and 1; bronchi, epithelial damage (score) (SARS-CoV-2 [3]; day 7 p.i., 1 mg/kg): 2 and 3 and 1; pulmonary parenchyma damage (score) (SARS-CoV-2 [3]; day 7 p.i., 1 mg/kg): 8 and 7 and 10; submucosal damage (score) (SARS-CoV-2 [3]; day 7 p.i., 1 mg/kg): 10 and 11 and 14; tissue repair (score) (SARS-CoV-2 [3]; day 7 p.i., 1 mg/kg): 15 and 14; vascular damage (score) (SARS-CoV-2 [3]; day 7 p.i., 1 mg/kg): 7 and 5 and 9; histopathology lesion scores versus untreated (in words) (SARS-CoV-2 [3]; infected hamsters, 1 mg/kg s.c. daily): no statistically significant differences in lesion scores; lung vascular damage scores versus untreated (in words) (SARS-CoV-2 [3]; infected hamsters, 1 mg/kg s.c. daily, days 5 and 7 p.i.): lower scores for vascular damage compared to the untreated group on days 5 and 7 p.i., these results were not statistically significant
